Data taken from patent US20240099944A1, “Stable Skin Care Compositions Containing a Retinoid” (priority 2022, published 2024).

Test: Yellow discoloration (b-value) by Color Test Method, accelerated stability 60° C. for two weeks
Format: physicochemical
Details: away from direct light, Example 2 with additional ingredient compared to Example 2
Protocol: This test was performed under accelerated stability conditions of 60° C., away from direct light for two weeks and the samples were stored in containers that limited the free flow of oxygen. […] The b-value was determined by the Color Test Method, described hereafter.
In Example 2, the DMDM hydantoin and iodopropynyl butylcarbamate preservative is replaced with a preservative system comprising hydroxyacetophenone and phenoxyethanol.
To measure the color of the compositions of the present invention, approximately 8 mL of the product to be tested is transferred into a petri dish (35×10 mm disposable) using a syringe. The Petri dish is then placed on the black half of a standard opacity chart (Form N2A, Leneta Company of Manwah, NJ or the equivalent thereof, of which the top half is black and the bottom half is white). The color (L, a, and b values) of the product in the petri dish is then measured using an integrated sphere spectrophotometer with settings selected to exclude specular reflection. The value for “a” correlates to a value along the red-green (horizontal) axis, and the value for “b” correlates to a value along the blue-yellow (vertical) axis. […] A more positive or negative value represents a more intense color. […]

Compound: O=S([O-])[O-].[Na+].[Na+] [sodium sulfite]
- b-value vs. Example 2 (Control): dramatically reduced the composition's b-value
